From patent US20130190345A1, “MATRINIC ACID/MATRINE DERIVATIVES AND PREPARATION METHODS AND USES THEREOF” (priority 2010, published 2013)

Tested on: Hsc70
Assay: Detection of Hsc70 gene expression level upon action of compound on 2.2.15 cells (real-time fluorescent quantified PCR)
Assay type: cell-based
Parameters: Hsc70 mRNA / Hsc70 down-regulation rate (%): unit not given here
Settings: 2.2.15 cells; down-regulation of liver cell Hsc70 gene
Description: 2.2.15 cells (purchased from Vertex Pharmaceutical Co., USA) in a number of 1×10^6 were inocubated to 6-well plate, cultured in a culture medium containing 10% fetal calf serum for 24 hr, the original culture medium was discarded, replaced with a culutre medium containing 400 μg/ml OMTR, which was used as control. Compounds were firstly dissolved in MEM to form 20 mg/ml mother liquid, which was diluted with culture medium when used and then applied to cells. The compounds of Examples 1-114 were separately used for treatment for 12, 24, 36 hr, then cells were harvested for extraction of RNA and DNA, then the changes of Hsc70 mRNA and HBV DNA were detected by real-time fluorescent quantified PCR.

Compound	Hsc70 mRNA
O=C1CC(C[N+](=O)[O-])CC2C3CCCN4CCCC(CN12)C34 (stereo not shown) [Compound 7a, 13-nitromethyl matrine]	35.8 ± 0.09
CNC1CC(=O)N2C[C@@H]3CCCN4CCC[C@@H]([C@H]34)[C@H]2C1 (stereo partly shown) [Compound 7b, 13-methylaminomatrine]	40.1 ± 0.09
O=C1C(OCc2ccccc2)C(OCc2ccccc2)CC2C3CCCN4CCCC(CN12)C34 (stereo not shown) [Compound 9b, 13,14-dibenzyloxy matrine]	45.4 ± 0.11
COC1CC(=O)N2CC3CCCN4CCCC(C34)C2C1 (stereo not shown) [Compound 6a, 13-methoxy matrine]	48.6 ± 0.16
O=C(CCl)OC1CC2C3CCCN4CCCC(CN2C(=O)C1O)C34 (stereo not shown) [Compound 9f, 14-hydroxyl-13-chloroacetyloxy matrine]	88.2 ± 0.21
O=C1CC(OCc2ccccc2)CC2C3CCCN4CCCC(CN12)C34 (stereo not shown) [Compound 6c, 13-benzyloxy matrine]	24.7 ± 0.10
O=C1CCC[C@@H]2[C@H]3CCC[N+]4([O-])CCC[C@@H](CN12)[C@@H]34 (stereo partly shown) [Compound 1, reference compound]	55.0 ± 0.10
O=C1C=CCC2C3CCCN4CCCC(CN12)C34 (stereo not shown) [Compound 3, reference compound]	21.6 ± 0.13
CC(Cl)C(=O)OC1CC2C3CCCN4CCCC(CN2C(=O)C1O)C34 (stereo not shown) [Compound 9g, 14-hydroxyl-13-2-chloropropionyloxy matrine]	48.6 ± 0.11
O=C(OC1CC(=O)N2C[C@@H]3CCCN4CCC[C@@H]([C@H]34)[C@H]2C1)c1ccccc1 (stereo partly shown) [Compound 6d, 13-benzoyloxy matrine]	51.0 ± 0.11
13,14-diacetyloxy matrine [Compound 9c]	<10
O=C(OC1CC2C3CCCN4CCCC(CN2C(=O)C1OC(=O)c1ccc(F)c([N+](=O)[O-])c1)C34)c1ccc(F)c([N+](=O)[O-])c1 (stereo not shown) [Compound 9d, 13,14-di(4-fluoro-3-nitro) benzoyloxy matrine]	30.8 ± 0.06
O=C(OC1CC2C3CCCN4CCCC(CN2C(=O)C1O)C34)c1ccc(F)c([N+](=O)[O-])c1 (stereo not shown) [Compound 9i, 14-hydroxyl-13-(4-fluoro-3-nitro)benzoyloxy matrine]	43.4 ± 0.08
CC(=O)OC1CC2C3CCCN4CCCC(CN2C(=O)C1O)C34 (stereo not shown) [Compound 9j, 14-hydroxyl-13-acetyloxy matrine]	54.8 ± 0.21
O=C1C=CCC2C3CCC[N+]4([O-])CCCC(CN12)C34 (stereo not shown) [Compound 4, oxidized sophocarpine]	15.3 ± 0.21
CC(=O)OC1CC2C3CCCN4CCCC(CN2C(=O)C1O)C34 (stereo not shown) [Compound 9e, 14-hydroxyl-13-acetyloxy matrine]	37.1 ± 0.16
COC1CC2C3CCCN4CCCC(CN2C(=O)C1OC)C34 (stereo not shown) [Compound 9a, 13,14-dimethoxy matrine]	39.3 ± 0.20
O=C1CCC[C@@H]2[C@H]3CCCN4CCC[C@@H](CN12)[C@@H]34 [Compound 2, reference compound]	52.4 ± 0.17
O=C(OC1CC2C3CCCN4CCCC(CN2C(=O)C1O)C34)c1ccccc1 (stereo not shown) [Compound 9h, 14-hydroxyl-13-benzoyloxy matrine]	34.5 ± 0.10

Same assay, conditions: 2.2.15 cells; relative to OMT (= 1)

Compound	Hsc70 inhibition rate (down-regulation of Hsc70 expression activity, expressed in relative OMT ratio)
C=C(C)[C@H](CCC(C)(C)O)Cc1c(O)cc(OC)c2c1O[C@H](c1ccc(O)cc1O)CC2=O [DM-200, kurarinol]	0.81
Cc1ccc(S(=O)(=O)N2CC3CCCN4CCCC(C34)C2CCCC(=O)O)cc1 (stereo not shown) [DM-102, N-(4-methylbenzenesulfonyl) matrinic acid]	1.1
C[N+]1(C)CC2CCCN3CCCC(C23)C1CCCC(=O)[O-] (stereo not shown) [DM-111, N,N-dimethyl matrinic acid]	0.25
O=C(O)CCCC1C2CCCN3CCCC(CN1Cc1ccccc1)C23 (stereo not shown) [DM-108, N-benzylmatrinic acid]	1.25
O=C(O)CCCC1C2CCCN3CCCC(CN1C(=O)CO)C23 (stereo not shown) [DM-105, N-(2-hydroxyl)acetylmatrinic acid]	<10
Cc1cccc(OCC(=O)N2CC3CCCN4CCCC(C34)C2CCCC(=O)O)c1 (stereo not shown) [DM-104a, N-(2-m-methylphenoxy)acetyl matrinic acid]	−2.98
O=C(O)CCCC1C2CCCN3CCCC(CN1CC1CC1)C23 (stereo not shown) [DM-115, N-cyclopropylmethyl matrinic acid]	−33
O=C(O)CCCC1C2CCCN3CCCC(CN1C(=O)C=Cc1ccccc1)C23 (stereo not shown) [DM-110, N-cinnamoyl matrinic acid]	<10
N-oxidized kurarinol [DM-2001]	−0.42
CCCN1CC2CCCN3CCCC(C1CCCC(=O)O)C23 (stereo not shown) [DM-113, N-propyl matrinic acid]	<10
O=C(O)CCCC1C2CCC[N+]3([O-])CCCC(CN1Cc1ccccc1)C23 (stereo not shown) [DM-1081, N-benzyl oxymatrinic acid]	1.26
Cc1cccc(OC(C)C(=O)N2CC3CCCN4CCCC(C34)C2CCCC(=O)O)c1 (stereo not shown) [DM-106, N-(2-m-methylphenoxy)propionylmatrinic acid]	1.67
O=C1CCC[C@@H]2[C@H]3CCCN4CCC[C@@H](CN12)[C@@H]34 [MT, Matrine]	−16
O=C(O)CCCC1C2CCC[N+]3([O-])CCCC(CN1CC1CC1)C23 (stereo not shown) [DM-1151, N-cyclopropylmethyl oxymatrinic acid]	0.52
O=C(O)CCCC1C2CCCN3CCCC(CN1CCO)C23 (stereo not shown) [DM-117, N-(2-hydroxyl)ethyl matrinic acid]	0.84
O=CN1CC2CCCN3CCCC(C1CCCC(=O)O)C23 (stereo not shown) [DM-106a, N-formylmatrinic acid]	−54
O=C(O)CCCC1C2CCCN3CCCC(CN1C(=O)c1ccccc1)C23 (stereo not shown) [DM-107, N-benzoyl matrinic acid]	1.04
N,N-dimethyl oxymatrinic acid [DM-1111]	−0.25
CCN1CC2CCCN3CCCC(C1CCCC(=O)O)C23 (stereo not shown) [DM-112, N-ethyl matrinic acid]	<10
COc1cccc(CN2CC3CCCN4CCCC(C2CCCC(=O)O)C34)c1 (stereo not shown) [DM-142, N-(3-methoxy)benzyl matrinic acid]	1.07
O=C1CCC[C@@H]2[C@H]3CCC[N+]4([O-])CCC[C@@H](CN12)[C@@H]34 (stereo partly shown) [OMT, Oxymatrine, reference compound]	1
O=C(O)CCCC1C2CCCN3CCCC(CN1S(=O)(=O)c1ccccc1)C23 (stereo not shown) [DM-109, N-benzenesulfonyl matrinic acid]	<10
O=C(O)CCCC1C2CCCN3CCCC(CN1C(=O)CCl)C23 (stereo not shown) [DM-104, N-chloroacetyl matrinic acid]	−7
O=C(O)CCCC1NCC2CCC[N+]3([O-])CCCC1C23 (stereo not shown) [DM-1001, N-oxidized matrinic acid]	0.92
COc1ccc(CN2CC3CCC[N+]4([O-])CCCC(C2CCCC(=O)O)C34)cc1 (stereo not shown) [DM-1221, N-(4-methoxybenzyl) oxymatrinic acid]	1.34

Tested on: HCV
Assay: Inhibition effects of compounds on HCV in Huh7.5 cultured cell after HCV infection
Assay type: cell-based
Settings: HCV-infected Huh7.5 cells, 200 μg/mL, Western blotting (FIG. 7B)
Description: 1×10^5/ml Huh7.5 cells (purchased from Vertex Pharmaceutical Co., USA) were inoculated in an amount of 0.1 ml on 96-well culture plate, placed in an incubator with 37° C., 5% CO2 content and saturation humidity, and cultured for 24 h, HCV virus in 45 IU/cell was used to infect Huh7.5, different drug solutions (DM122) formulated with culture medium were added, and cell control and HCV infection control were set. Cultivation was continuously performed in the incubator with 37° C., 5% CO2 content and saturation humidity for 72 h, kit for RNA extraction was used to extract intracellular RNA, one-step qRT-PCR was used to determine intracellular contents of HCV and GAPDH RNA, and the inhibition effects of drug on HCV infection was analyzed. […] In comparison with the virus control group, the inhibition effects on HCV infection upon action of different drugs were analyzed. […] This experiment was repeated for 3 times, * indicated […] in comparison with control, ** indicated p<0.01 in comparison with control.

Compound	anti-HCV activity (HCV nucleoprotein and Hsc70 protein levels)
α-interferon	capable of inhibiting HCV replication
CC(Cl)C(=O)OC1CC2C3CCCN4CCCC(CN2C(=O)C1O)C34 (stereo not shown) [Compound 9g, 14-hydroxyl-13-2-chloropropionyloxy matrine]	significant activity on anti-HCV
